# Test results reported in patent US8912181B2 (Taiho Pharmaceutical Co., Ltd., priority 2011, dated 2014).
# Key:
# SK-BR-3 cells = assay: Determination of cell growth inhibition (crystal violet staining method); format: cell-based; conditions: Homo sapiens; breast cancer cells SK-BR-3, 72 hours culture with test substance
# Experimental: Cell growth was assayed by a crystal violet staining method. SK-BR-3 cells (HTB-30) purchased from American Type Culture Collection were inoculated at a concentration of 5,000 cells/well to a 96-well plate (#353075, BD Biosciences). After culture at 37° C. for 24 hours in a 5% CO2 incubator, each test substance was added thereto, and the cells were further cultured for 72 hours. A 25% glutaraldehyde solution (#17025-25, Nacalai Tesque, Inc.) was added thereto at a concentration of 20 μL/well per 200 μL of the medium, and the plate was incubated at room temperature for 20 minutes to fix the cells. The plate was washed with water and dried. Then, a solution containing 0.05% crystal violet (#038-17792, Wako Pure Chemical Industries, Ltd.) and 20% methanol was added thereto at a concentration of 100 μL/well, and the plate was incubated at room temperature for 20 minutes to stain the cells. The plate was washed with water and dried. A mixed solution of 0.05 M NaH2PO4 and ethanol (mixed in equal amounts) was added thereto at a concentration of 100 μL/well. Absorbance was measured at 540 nm using a microplate reader (MTP-450, Corona Electric Co., Ltd.) and used as an index for the number of cells per well. Percent inhibition (%) of cell growth by each compound of the present invention was determined according to the formula shown below with the absorbance of no drug addition group as a control. […] Percent inhibition (%)=(C−T)/C×100, wherein T: Absorbance of well with test substance addition C: Absorbance of well without test substance addition.
# [1] = target: human HSP90 alpha protein (N-terminal, amino acids 2 to 236) (Homo sapiens (Human), UniProt P07900); assay: Determination of HSP90-binding activity (AlphaScreen competitive assay with biotinylated geldanamycin); conditions: inhibition of binding of biotinylated geldanamycin to purified HSP90 N-terminal protein, read-out: HSP-binding activity IC50
# Experimental: First, a purified HSP90 solution was prepared as follows: a human HSP90 alpha gene (NCBI Reference Sequence accession no. NM-005348) region corresponding to amino acids 2 to 236 of human HSP90 alpha protein (NCBI Reference Sequence accession no. NP-005339; full length: 732 amino acids) was inserted to pET-19b (Novagen; Merck KGaA) to construct a plasmid pET-HS[…] for expression of the HSP90 N-terminal protein having a His-tag at the N-terminus. E. coli (BL21(DE3), Stratagene Corp.) was transformed with pET-HS[…] and then cultured at 37° C. for 4 hours in the presence of 0.5 mM isopropyl-beta-D-thiogalactopyranoside (Sigma-Aldrich Corp.). The collected E. coli was suspended in a lysis buffer (50 mM Tris-HCl (pH 7.5), 200 mM NaCl) and sonicated. The sonicated cell solution was centrifuged (40,000×g, 20 minutes), and the supernatant was used as a crude extract. This crude extract was fractionated using Ni Sepharose High Performance (GE Healthcare Japan Corp.) chromatography and HiLoad 26/60 Superdex 75 pg (GE Healthcare Japan Corp.). Then, a fraction of HSP90 protein concentrates was prepared in a solution containing 50 mM Tris-HCl (pH 7.5) and 20% glycerol as a purified HSP90 solution. The purified HSP90 solution was divided and stored at -80° C. until use. HSP90-binding activity was determined by an AlphaScreen competitive assay system. […] After reaction at room temperature for 2 hours, biotinylated geldanamycin was added thereto at a concentration of 40 nM/well and further reacted for 1 hour. Detection mix (20 mM HEPES-KOH (pH 7.5), 0.5% BSA, 0.04 mg/mL Nickel Chelate Acceptor beads, 0.04 mg/mL Streptavidin-coated Donor beads) (#6760619C, PerkinElmer, Inc.) was added to each well in an amount equal to the amount of the reaction solution and reacted at room temperature for 1 hour in the dark. Then, fluorescence intensity was measured using Multilabel Plate Reader EnVision (PerkinElmer, Inc.). Percent inhibition (%) of the binding of biotinylated geldanamycin by each compound of the present invention was determined according to the formula shown below with the fluorescence signal of no test substance addition group as a control. […] Percent inhibition (%)=(C-T)/C×100, wherein T: Signal of well with test substance addition C: Signal of well without test substance addition.
IC50 (SK-BR-3 cells) [nM],IC50 [1] [nM],Compound
30,220,"NC(=O)c1ccc(-c2nccc3c(-c4cnc5cc(C=O)ccc5c4)cccc23)cc1NC1CCC(O)CC1 (stereo not shown) [Example 45, 4-(5-(7-Formylquinolin-3-yl)isoquinolin-1-yl)-2-(4-hydroxycyclohexylamino)benzamide]"
20,70,"Cn1cc(-c2cn(-c3cccc4c(-c5ccc(C(N)=O)c(NC6CCC(O)CC6)c5)nccc34)cn2)cn1 (stereo not shown) [Example 48, 2-(4-Hydroxycyclohexylamino)-4-(5-(4-(1-methyl-1H-pyrazol-4-yl)-1H-imidazol-1-yl)isoquinolin-1-yl)benzamide]"
400,1560,"NC(=O)c1ccc(-c2nccc3c(-c4cnc5ccc(CN6CCOCC6)cc5c4)cccc23)cc1NC1CCC(O)CC1 (stereo not shown) [Example 49, 2-(4-Hydroxycyclohexylamino)-4-(5-(6-(morpholinomethyl)quinolin-3-yl)isoquinolin-1-yl)benzamide]"
40,120,"CC(C)n1cc(-c2cn(-c3cccc4c(-c5ccc(C(N)=O)c(NC6CCC(O)CC6)c5)nccc34)cn2)cn1 (stereo not shown) [Example 53, 2-(4-Hydroxycyclohexylamino)-4-(5-(4-(1-isopropyl-1H-pyrazol-4-yl)-1H-imidazol-1-yl)isoquinolin-1-yl)benzamide]"
470,370,"CNC(=O)c1ccc(-c2cccc3c(-c4ccc(C(N)=O)c(NC5CCC(O)CC5)c4)nccc23)cn1 (stereo not shown) [Example 56, 5-(1-(4-Carbamoyl-3-(4-hydroxycyclohexylamino)phenyl)isoquinolin-5-yl)-N-methylpicolinamide]"
1440,250,"CNc1cc(-c2nccc3c(-n4cnc(-c5cnn(C)c5)c4)cccc23)ccc1C(N)=O [Example 58, 4-(5-(4-(1-Methyl-1H-pyrazol-4-yl)-1H-imidazol-1-yl)isoquinolin-1-yl)-2-(methylamino)benzamide]"
90,100,"Cn1cc(-c2cn(-c3cccc4c(-c5ccc(C(N)=O)c(NCC6CCCO6)c5)nccc34)cn2)cn1 (stereo not shown) [Example 59, 4-(5-(4-(1-Methyl-1H-pyrazol-4-yl)-1H-imidazol-1-yl)isoquinolin-1-yl)-2-((tetrahydrofuran-2-yl)methylamino)benzamide]"

# Further lines, the compound ahead of its results:
Compound,IC50 (SK-BR-3 cells) [nM],IC50 [1] [nM]
"NC(=O)c1ccc(-c2nccc3c(-c4cncc(CO)c4)cccc23)cc1NC1CCC(O)CC1 (stereo not shown) [Example 17, 2-(4-Hydroxycyclohexylamino)-4-(5-(5-(hydroxymethyl)pyridin-3-yl)isoquinolin-1-yl)benzamide]",280,100
"CC(C)(C)OC(=O)NCCc1cncc(-c2cccc3c(-c4ccc(C(N)=O)c(NC5CCC(O)CC5)c4)nccc23)c1 (stereo not shown) [Example 19, Tert-butyl 2-(5-(1-(4-carbamoyl-3-(4-hydroxycyclohexylamino)phenyl)isoquinolin-5-yl)pyridin-3-yl)ethylcarbamate]",880,2690
"COc1cncc(-c2cccc3c(-c4ccc(C(N)=O)c(NC5CCC(O)CC5)c4)nccc23)c1 (stereo not shown) [Example 24, 2-(4-Hydroxycyclohexylamino)-4-(5-(5-methoxypyridin-3-yl)isoquinolin-1-yl)benzamide]",690,650
"NC(=O)c1ccc(-c2nccc3c(-n4cnc(-c5ccncc5)c4)cccc23)cc1NC1CCC(O)CC1 (stereo not shown) [Example 25, 2-(4-Hydroxycyclohexylamino)-4-(5-(4-(pyridin-4-yl)-1H-imidazol-1-yl)isoquinolin-1-yl)benzamide]",110,130
"CC(=O)Nc1cncc(-c2cccc3c(-c4ccc(C(N)=O)c(NC5CCC(O)CC5)c4)nccc23)c1 (stereo not shown) [Example 27, 4-(5-(5-Acetamidepyridin-3-yl)isoquinolin-1-yl)-2-(4-hydroxycyclohexylamino)benzamide]",540,150
"NC(=O)c1ccc(-c2nccc3c(-c4cncc(NC(=O)CO)c4)cccc23)cc1NC1CCC(O)CC1 (stereo not shown) [Example 28, 4-(5-(5-(2-Hydroxyacetamide)pyridin-3-yl)isoquinolin-1-yl)-2-(4-hydroxycyclohexylamino)benzamide]",500,230
"NC(=O)c1ccc(-c2nc(CN3CCOCC3)cc3c(-c4cnc5ccccc5c4)cccc23)cc1NC1CCC(O)CC1 (stereo not shown) [Example 31, 2-(4-Hydroxycyclohexylamino)-4-(3-(morpholinomethyl)-5-(quinolin-3-yl)isoquinolin-1-yl)benzamide]",580,800
"NC(=O)c1ccc(-c2nccc3c(-n4cnc(-c5cccnc5)c4)cccc23)cc1NC1CCC(O)CC1 (stereo not shown) [Example 32, 2-(4-Hydroxycyclohexylamino)-4-(5-(4-(pyridin-3-yl)-1H-imidazol-1-yl)isoquinolin-1-yl)benzamide]",20,80
"CNc1cncc(-c2cccc3c(-c4ccc(C(N)=O)c(NC5CCC(O)CC5)c4)nccc23)c1 (stereo not shown) [Example 34, 2-(4-Hydroxycyclohexylamino)-4-(5-(5-(methylamino)pyridin-3-yl)isoquinolin-1-yl)benzamide]",50,140
"CCCNc1cncc(-c2cccc3c(-c4ccc(C(N)=O)c(NC5CCC(O)CC5)c4)nccc23)c1 (stereo not shown) [Example 35, 2-(4-Hydroxycyclohexylamino)-4-(5-(5-(propylamino)pyridin-3-yl)isoquinolin-1-yl)benzamide]",460,1490
"CN(CCO)CNC(=O)c1ccc(-c2nccc3c(-c4cnc5ccccc5c4)cccc23)cc1NC1CCC(O)CC1 (stereo not shown) [Example 37, 2-(4-Hydroxycyclohexylamino)-N-(((2-hydroxyethyl)(methyl)amino)methyl)-4-(5-(quinolin-3-yl)isoquinolin-1-yl)benzamide]",60,370
"CN(C)CNC(=O)c1ccc(-c2nccc3c(-c4cnc5ccccc5c4)cccc23)cc1NC1CCC(O)CC1 (stereo not shown) [Example 38, N-((dimethylamino)methyl)-2-(4-hydroxycyclohexylamino)-4-(5-(quinolin-3-yl)isoquinolin-1-yl)benzamide]",40,980
"NC(=O)c1ccc(-c2nccc3c(-c4cnc5cc[nH]c5c4)cccc23)cc1NC1CCC(O)CC1 (stereo not shown) [Example 39, 4-(5-(1H-Pyrrolo[3,2-b]pyridin-6-yl)isoquinolin-1-yl)-2-(4-hydroxycyclohexylamino)benzamide]",10,130
"Cc1nc2ncc(-c3cccc4c(-c5ccc(C(N)=O)c(NC6CCC(O)CC6)c5)nccc34)cc2[nH]1 (stereo not shown) [Example 40, 2-(4-Hydroxycyclohexylamino)-4-(5-(2-methyl-1H-imidazo[4,5-b]pyridin-6-yl)isoquinolin-1-yl)benzamide]",540,150
"CCc1nc2ncc(-c3cccc4c(-c5ccc(C(N)=O)c(NC6CCC(O)CC6)c5)nccc34)cc2[nH]1 (stereo not shown) [Example 41, 4-(5-(2-Ethyl-1H-imidazo[4,5-b]pyridin-6-yl)isoquinolin-1-yl)-2-(4-hydroxycyclohexylamino)benzamide]",1270,390
"NC(=O)c1ccc(-c2nccc3c(-c4cncnc4)cccc23)cc1NC1CCC(O)CC1 (stereo not shown) [Example 43, 2-(4-Hydroxycyclohexylamino)-4-(5-(pyrimidin-5-yl)isoquinolin-1-yl)benzamide]",1100,690
